These molecules were tested against T1, Human PIP4K2C (Homo sapiens, UniProt Q8TBX8) (assay: Enzyme binding assay (KINOMEscan), active site-directed competition binding). Settings: 11-point dose response, duplicate, top concentration 5 micromolar; read-out: Pip4k2c Kd: IC50.
T1 construct: purchased Eurofins DiscoverX 87-0007-1094
T1 sequence (Q8TBX8 1-421): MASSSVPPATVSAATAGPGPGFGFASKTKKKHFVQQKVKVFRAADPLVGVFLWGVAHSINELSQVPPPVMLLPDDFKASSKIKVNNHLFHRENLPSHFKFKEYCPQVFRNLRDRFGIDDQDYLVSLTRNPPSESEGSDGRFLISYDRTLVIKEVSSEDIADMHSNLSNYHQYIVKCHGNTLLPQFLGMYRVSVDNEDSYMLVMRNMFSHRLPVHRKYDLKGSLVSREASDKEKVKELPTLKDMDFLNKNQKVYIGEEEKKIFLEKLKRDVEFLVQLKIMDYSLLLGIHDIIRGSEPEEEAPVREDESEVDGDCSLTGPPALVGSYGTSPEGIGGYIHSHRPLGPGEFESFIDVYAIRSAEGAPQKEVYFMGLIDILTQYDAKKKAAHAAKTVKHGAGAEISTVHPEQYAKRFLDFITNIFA
Method: PIP4K2C binding constants disclosed herein were determined using the proprietary Human PIP4K2C binding assay (Catalog number 87-0007-1094, Eurofins DiscoverX, San Diego, CA). This assay measures active site-directed competition binding to an immobilized ligand (see https://doi.org/10.1038/nbt1068, herein incorporated by reference in its entirety). Experiments were conducted using an 11-point dose response curve, in duplicate, with a top starting concentration of 5 micromolar; the Levenberg-Marquardt algorithm was used to fit a Hill equation to dose-response data to calculate IC50 values (see Table 5).

| Compound | IC50 [µM] |
| --- | --- |
| O=C1CCCN1c1cncc(Nc2cc(-c3ccc(F)cc3)c(Cl)cn2)c1 [Compound 103, 1-(5-((5-chloro-4-(4-fluorophenyl)pyridin-2-yl)amino)pyridin-3-yl)pyrrolidin-2-one] | < 0.5 |
| O=C1CCCN1c1cncc(Nc2ncc(Cl)c(-c3cccc(Oc4ccccc4)c3)n2)c1 [Compound 142, 1-(5-((5-chloro-4-(3-phenoxyphenyl)pyrimidin-2-yl)amino)pyridin-3-yl)pyrrolidin-2-one] | < 0.5 |
| O=C1CCCN1c1cncc(Nc2ncc(Cl)c(-c3ccc(F)cc3F)n2)c1 [Compound 108, 1-(5-((5-chloro-4-(2,4-difluorophenyl)pyrimidin-2-yl)amino)pyridin-3-yl)pyrrolidin-2-one] | < 0.5 |
| O=C1CCCN1c1cncc(Nc2ncc(Cl)c(C3CCCN(C4CCCC4)C3)n2)c1 (stereo not shown) [Compound 135, 1-(5-((5-chloro-4-(1-cyclopentylpiperidin-3-yl)pyrimidin-2-yl)amino)pyridin-3-yl)pyrrolidin-2-one] | < 0.5 |
| CN1CCC(n2cc(-c3nc(Nc4cncc(N5CCCC5=O)c4)ncc3Cl)cn2)CC1 [Compound 47, 1-(5-((5-chloro-4-(1-(1-methylpiperidin-4-yl)-1H-pyrazol-4-yl)pyrimidin-2-yl)amino)pyridin-3-yl)pyrrolidin-2-one] | < 0.5 |
| O=C1CCCN1c1cncc(Nc2ncc(Cl)c(N3CCCc4ccccc43)n2)c1 [Compound 127, 1-(5-((5-chloro-4-(3,4-dihydroquinolin-1(2H)-yl)pyrimidin-2-yl)amino)pyridin-3-yl)pyrrolidin-2-one] | < 0.5 |
| CC1CCN(c2nc(Nc3cncc(N4CCCC4=O)c3)ncc2Cl)CC1 [Compound 102, 1-(5-((5-chloro-4-(4-methylpiperidin-1yl)pyrimidin-2-yl)amino)pyridin-3-yl)pyrrolidin-2-one] | < 0.5 |
| O=C1CCCN1c1cncc(Nc2ncc(Cl)c(N3CCCC(n4ccccc4=O)C3)n2)c1 (stereo not shown) [Compound 156, 1-(1-(5-chloro-2-((5-(2-oxopyrrolidin-1-yl)pyridin-3-yl)amino)pyrimidin-4-yl)piperidin-3-yl)pyridin-2(1H)-one] | < 0.5 |
| O=C1CCCN1c1cncc(Nc2ncc(Cl)c(-c3cc(-c4ccccc4)[nH]n3)n2)c1 [Compound 49, 1-(5-((5-chloro-4-(5-phenyl-1H-pyrazol-3-yl)pyrimidin-2-yl)amino)pyridin-3-yl)pyrrolidin-2-one] | < 0.5 |
| COc1ccc(-c2nc(Nc3cncc(N4CCCC4=O)c3)ncc2Cl)cc1-c1ccccc1 [Compound 8, 1-(5-((5-chloro-4-(6-methoxy-[1,1′-biphenyl]-3-yl)pyrimidin-2-yl)amino)pyridin-3-yl)pyrrolidin-2-one] | < 0.5 |
| CC(=O)N1CCCC(c2nc(Nc3cncc(N4CCCC4=O)c3)ncc2Cl)C1 (stereo not shown) [Compound 151, 1-(5-((4-(1-acetylpiperidin-3-yl)-5-chloropyrimidin-2-yl)amino)pyridin-3-yl)pyrrolidine-2-one] | < 0.5 |
| O=C(C1CCCC1)N1CCCC(c2nc(Nc3cncc(N4CCCC4=O)c3)ncc2Cl)C1 (stereo not shown) [Compound 146, 1-(5-((5-chloro-4-(1-(cyclopentanecarbonyl)piperidin-3-yl)pyrimidin-2-yl)amino)pyridin-3-yl)pyrrolidin-2-one] | < 0.5 |
| O=C1CCCN1c1cncc(Nc2ncc(Cl)c(-c3cccc(C4CCCC4)c3)n2)c1 [Compound 40, 1-(5-((5-chloro-4-(3-cyclopentylphenyl)pyrimidin-2-yl)amino)pyridin-3-yl)pyrrolidin-2-one] | < 0.5 |
| O=C1CCCN1c1cncc(Nc2ncc(Cl)c(N3CCCCC3C(F)(F)F)n2)c1 (stereo not shown) [Compound 119, 1-(5-((5-chloro-4-(2-(trifluoromethyl)piperidin-1-yl)pyrimidin-2-yl)amino)pyridin-3-yl)pyrrolidin-2-one] | < 0.5 |
| O=C1CCCN1c1cncc(Nc2ncc(Cl)c(-c3cccc(C4CCCNC4)c3)n2)c1 (stereo not shown) [Compound 30, 1-(5-((5-chloro-4-(3-(piperidin-3-yl)phenyl)pyrimidin-2-yl)amino)pyridin-3-yl)pyrrolidin-2-one] | < 0.5 |
| O=C(c1cc[nH]c(=O)c1)N1CCCC(c2nc(Nc3cncc(N4CCCC4=O)c3)ncc2Cl)C1 (stereo not shown) [Compound 164, 4-(3-(5-chloro-2-((5-(2-oxopyrrolidin-1-yl)pyridin-3-yl)amino)pyrimidin-4-yl)piperidine-1-carbonyl)pyridin-2(1H)-one] | < 0.5 |
| O=C1CCCN1c1cncc(Nc2ncc(Cl)c(-c3ccn(C4CCCC4)n3)n2)c1 [Compound 144, 1-(5-((5-chloro-4-(1-cyclopentyl-1H-pyrazol-3-yl)pyrimidin-2-yl)amino)pyridin-3-yl)pyrrolidin-2-one] | < 0.5 |
| CC(=O)N1CCC(n2cc(-c3nc(Nc4cncc(N5CCCC5=O)c4)ncc3Cl)cn2)CC1 [Compound 48, 1-(5-((4-(1-(1-acetylpiperidin-4-yl)-1H-pyrazol-4-yl)-5-chloropyrimidin-2-yl)amino)pyridin-3-yl)pyrrolidin-2-one] | < 0.5 |
| O=C1CCCN1c1cncc(Nc2ncc(Cl)c(-c3ccc(F)cc3)n2)c1 [Compound 118, 1-(5-((5-chloro-4-(4-fluorophenyl)pyrimidin-2-yl)amino)pyridin-3-yl)pyrrolidin-2-one] | < 0.5 |
| Cc1ccc(-c2nc(Nc3cncc(N4CCCC4=O)c3)ncc2Cl)cc1-c1ccccc1 [Compound 7, 1-(5-((5-chloro-4-(6-methyl-[1,1′-biphenyl]-3-yl)pyrimidin-2-yl)amino)pyridin-3-yl)pyrrolidin-2-one] | < 0.5 |

Next, values leading:

| IC50 [µM] | Compound |
| --- | --- |
| < 0.5 | CN1CCC2(CC1)CCN(c1cncc(Nc3ncc(Cl)c(-c4cccc(-c5ccccc5)c4)n3)c1)C2=O [Compound 132, 2-[5-[[5-chloro-4-(3-phenylphenyl)pyrimidin-2-yl]amino]-3-pyridyl]-8-methyl-2,8-diazaspiro[4.5]decan-1-one] |
| < 0.5 | O=C1CCCN1c1cncc(Nc2ncc(Cl)c(N3CCCC(O)C3)n2)c1 (stereo not shown) [Compound 99] |
| < 0.5 | CN1CCN(c2cncc(Nc3ncc(Cl)c(-c4cccc(-c5ccccc5)c4)n3)c2)C1=O [Compound 32, 1-(5-((4-([1,1′-biphenyl]-3-yl)-5-chloropyrimidin-2-yl)amino)pyridin-3-yl)-3-methylimidazolidin-2-one] |
| < 0.5 | O=C(C1COC1)N1CCCC(c2nc(Nc3cncc(N4CCCC4=O)c3)ncc2Cl)C1 (stereo not shown) [Compound 160, 1-(5-((5-chloro-4-(1-(oxetane-3-carbonyl)piperidin-3-yl)pyrimidin-2-yl)amino)pyridin-3-yl)pyrrolidin-2-one] |
| < 0.5 | CC(=O)N1CCC2(CC1)CCN(c1cncc(Nc3ncc(Cl)c(-c4cccc(-c5ccccc5)c4)n3)c1)C2=O [Compound 133, 8-acetyl-2-[5-[[5-chloro-4-(3-phenylphenyl)pyrimidin-2-yl]amino]-3-pyridyl]-2,8-diazaspiro[4.5]decan-1-one] |
| < 0.5 | O=C1CCCN1c1cncc(Nc2ncc(Cl)c(-c3cccc(-c4cccnc4)c3)n2)c1 [Compound 16, 1-(5-((5-chloro-4-(3-(pyridin-3-yl)phenyl)pyrimidin-2-yl)amino)pyridin-3-yl)pyrrolidin-2-one] |
| < 0.5 | O=C(c1ccc(=O)[nH]c1)N1CCCC(c2nc(Nc3cncc(N4CCCC4=O)c3)ncc2Cl)C1 (stereo not shown) [Compound 163, 5-[3-[5-chloro-2-[[5-(2-oxopyrrolidin-1-yl)-3-pyridyl]amino]pyrimidin-4-yl]piperidine-1-carbonyl]-1H-pyridin-2-one] |
| < 0.5 | O=C1CCCN1c1cncc(Nc2ncc(Cl)c(-c3cccc(N4CCCC4)c3)n2)c1 [Compound 46, 1-(5-((5-chloro-4-(3-(pyrrolidin-1-yl)phenyl)pyrimidin-2-yl)amino)pyridin-3-yl)pyrrolidin-2-one] |
| < 0.5 | O=C1CCCN1c1cncc(Nc2ncc(Cl)c(-c3ccc(F)cc3Cl)n2)c1 [Compound 112, 1-(5-((5-chloro-4-(2-chloro-4-fluorophenyl)pyrimidin-2-yl)amino)pyridin-3-yl)pyrrolidin-2-one] |
| < 0.5 | O=C1CCCN1c1cncc(Nc2ncc(Cl)c(N3CCC[C@H](c4ccccc4)C3)n2)c1 [Compound 44, (R)-1-(5-((5-chloro-4-(3-phenylpiperidin-1-yl)pyrimidin-2-yl)amino)pyridin-3yl)pyrrolidin-2-one] |
| < 0.5 | O=C1CCCN1c1cncc(Nc2ncc(Cl)c(-c3ccc(Cl)c(-c4ccccc4)c3)n2)c1 [Compound 6, 1-(5-((5-chloro-4-(6-chloro-[1,1′-biphenyl]-3-yl)pyrimidin-2-yl)amino)pyridin-3-yl)pyrrolidin-2-one] |
| < 0.5 | CC1CCCCN1c1nc(Nc2cncc(N3CCCC3=O)c2)ncc1Cl (stereo not shown) [Compound 106, 1-(5-((5-chloro-4-(2-methylpiperidin-1-yl)pyrimidin-2-yl)amino)pyridin-3-yl)pyrrolidin-2-one] |
| < 0.5 | O=C1CCCN1c1cncc(Nc2ncc(Cl)c(N3CCC[C@H](c4ccccn4)C3)n2)c1 (single isomer, unassigned) [Compound 125] |
| < 0.5 | O=C1CCCN1c1cncc(Nc2ncc(Cl)c(N3CCC[C@@H](c4ccccc4)C3)n2)c1 [Compound 43, (S)-1-(5-((5-chloro-4-(3-phenylpiperidin-1-yl)pyrimidin-2-yl)amino)pyridin-3-yl)pyrrolidin-2-one] |

Reference: patent publication US20260184691A1, “INHIBITORS AND DEGRADERS OF PIP4K PROTEIN” (Larkspur Biosciences, Inc., priority 2022, published 2026)
